Measured values taken from patent publication US11976083B2, “Inhibitors of peptidylarginine deiminases” (Gilead Sciences, Inc., priority 2020, dated 2024).

Target: T1, human PAD4 (Homo sapiens, UniProt Q9UM07)
T1 construct: human PAD4 (NM_012387), A2-P663, was PCR amplified; His-SUMO (N, cleaved yes); made in house; host or cells: E. coli BL21(DE3)
Experiment: In vitro PAD4 BAEE biochemical assay
Conditions: BAEE substrate 3 mM, 5 nM PAD4, 2 mM calcium chloride; geometric mean of multiple experiments
In short: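 Ammonia produced by BAEE deimination (3 mM substrate, 2 h, 25 °C) was read as fluorescent isoindole after o-phthalaldehyde/DTT derivatization, ex 405 nm/em 535 nm. Human PAD4 at 5 nM final, 2 mM calcium, pH 7.6 MOPS; compound preincubated 30 min. IC50s, normalized to BB-Cl-Amidine and DMSO controls, were geometric-mean averaged.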

T1 sequence (Q9UM07 2-663): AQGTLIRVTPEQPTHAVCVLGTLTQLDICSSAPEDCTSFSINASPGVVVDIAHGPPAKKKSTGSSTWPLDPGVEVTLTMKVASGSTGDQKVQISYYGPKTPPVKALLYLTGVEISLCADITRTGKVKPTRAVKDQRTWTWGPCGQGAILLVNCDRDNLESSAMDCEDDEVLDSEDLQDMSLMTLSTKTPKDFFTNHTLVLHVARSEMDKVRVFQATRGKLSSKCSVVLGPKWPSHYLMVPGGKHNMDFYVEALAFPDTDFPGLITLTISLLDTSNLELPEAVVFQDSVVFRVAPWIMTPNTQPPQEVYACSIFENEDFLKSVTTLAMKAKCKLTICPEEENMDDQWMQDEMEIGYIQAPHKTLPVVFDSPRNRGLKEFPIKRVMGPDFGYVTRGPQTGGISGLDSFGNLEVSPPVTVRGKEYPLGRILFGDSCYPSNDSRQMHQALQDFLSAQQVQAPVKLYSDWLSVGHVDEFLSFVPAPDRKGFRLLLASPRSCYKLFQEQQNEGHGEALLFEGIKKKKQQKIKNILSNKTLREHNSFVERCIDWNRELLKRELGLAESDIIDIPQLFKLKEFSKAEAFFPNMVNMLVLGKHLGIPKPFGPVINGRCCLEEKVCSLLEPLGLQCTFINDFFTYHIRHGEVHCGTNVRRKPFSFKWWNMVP

SMILES	IC50 [µM]
COc1cc(C(=O)N2C[C@H]3C[C@H]3[C@H](N)C2)cc2nc(-c3cc4ccc5nc4n3CCCCCCC(C)(C)C(=O)N[C@@H]5C)n(C)c12 [Example 543, (11~{R})-17-[5-[(1~ {S},5~{S},6~{R})-5-amino-3-azabicyclo [4.1.0]heptane-3-carbonyl]-7-methoxy-1-methyl-benzimidazol-2-yl]-8,8,11-trimethyl-1,10,19-triazatricyclo [10.5.2.0^{15,18}]nonadeca-12(19),13,15(18), 16-tetraen-9-one]	0.405
COc1cc(C(=O)N2C[C@H]3OC[C@@H]2[C@@H]3N)cc2nc(-c3cc4ccc5nc4n3CCCCCCC(C)(C)C(=O)N[C@@H]5C)n(C)c12 [Example 708, (11~{R})-17-[5-[(1~{R},4~{S), 7~{S})-7-amino-2-oxa-5-azabicyclo[2.2.1]heptane-5-carbonyl]-7-methoxy-1-methyl-benzimidazol-2-yl]-8,8,11-trimethyl-1,10,19-triazatricyclo[10.5.2.0^ {15,18}]nonadeca-12(19),13,15(18),16-tetraen-9-one]	0.091
CO[C@@H]1CCN(C(=O)c2cc(F)c3c(c2)nc(-c2cc4ccc5nc4n2CCCCCc2ccnc(C)c2C(=O)N[C@@H]5C)n3C2CC2)C[C@@H]1N [Example 698, (2~{R})-17-[5-[(3~{S),4~ {R})-3-amino-4-methoxy-piperidine-1-carbonyl]-1-cyclopropyl-7-fluoro-benzimidazol-2-yl]-2,6-dimethyl-3,7,16,22-tetrazatetracyclo[14.5.2.0^ {5,10).0^{19,23}]tricosa-1(22),5(10),6,8,17,19(23),20-heptaen-4-one]	0.068
COc1cc(C(=O)N2CC[C@@H](OC)[C@@H](N)C2)cc2nc(-c3cc4ccc5nc4n3CCCCCCC(C)(C)C(=O)N[C@@H]5C)n(C)c12 [Example 60, (11~{R})-17-[5-[(3~{S},4~{R})-3-amino-4-methoxy-piperidine-1-carbonyl]-7-methoxy-1-methyl-benzimidazol-2-yl]-8,8,11-trimethyl-1,10,19-triazatricyclo[10.5.2.0^{15,18}]nonadeca-12(19),13,15(18),16-tetraen-9-one]	0.118
COc1cc(C(=O)N2CCC[C@@H](N)C2)cc2nc(-c3cc4ccc5nc4n3CCCCCC[C@@H]3CCN(C3=O)[C@@H]5C)n(C)c12 [Example 112, (2~{R},6~{R})-14-[5-[(3~{R})-3-aminopiperidine-1-carbonyl]-7-methoxy-1-methyl-benzimidazol-2-yl]-2-methyl-3,13,19-triazatetracyclo[11.5.2.1^{3,6}.0^{16,20}] henicosa-1(19),14,16(20),17-tetraen-21-one]	0.081
COc1cc(C(=O)N2C[C@H](N)C[C@@H](F)C2)cc2nc(-c3cc4ccc5nc4n3CCCCCCC(C)(C)C(=O)N[C@@H]5C)n(C)c12 [Example 193, (11~{R})-17-[5-[(3~{R},5~{R})-3-amino-5-fluoro-piperidine-1-carbonyl]-7-methoxy-1-methyl-benzimidazol-2-yl]-8,8,11-trimethyl-1,10,19-triazatricyclo[10.5.2.0^{15,18}]nonadeca-12(19),13,15(18),16-tetraen-9-one]	0.066
COc1cc(C(=O)N2CC[C@@H](OC)[C@@H](N)C2)cc2nc(-c3cc4ccc5nc4n3CCCCCc3nn(C)nc3C(=O)N[C@@H]5C)n(C)c12 [Example 570, (2~{R})-16-[5-[(3~{S}, 4~{R})-3-amino-4-methoxy-piperidine-1-carbonyl]-7-methoxy-1-methyl-benzimidazol-2-yl]-2,7-dimethyl-3,6,7,8,15,21-hexazatetracyclo[13.5.2.0^ {5,9}.0^{18,22}] docosa-1(21),5,8,16,18(22), 19-hexaen-4-one]	0.094
COc1cc(C(=O)N2C[C@H]3C[C@H]3[C@@H](N)C2)cc2nc(-c3cc4ccc5nc4n3CCCCCCC(C)(C)C(=O)N[C@@H]5C)n(C)c12 [Example 206, (11~{R})-17-[5-[(1~{S},5~{R},6~{R})-5-amino-3-azabicyclo[4.1.0]heptane-3-carbonyl]-7-methoxy-1-methyl-benzimidazol-2-yl]-8,8,11-trimethyl-1,10,19-triazatricyclo[10.5.2.0^{15,18}]nonadeca-12(19),13,15(18),16-tetraen-9-one]	0.85
COc1cc(C(=O)N[C@H]2CNCC[C@@H]2F)cc2nc(-c3cc4ccc5nc4n3CC(F)(F)CCCc3ccccc3C(=O)N[C@@H]5C)n(C)c12 [Example 186, 2-[(2~{R})-14,14-difluoro-2-methyl-4-oxo-3,16,22-triazatetracyclo[14.5.2.0^{5,10}.0^{19,23}]tricosa-1(22),5(10),6,8,17,19(23),20-heptaen-17-yl]-~{N}-[(3~{S},4~{S})-4-fluoro-3-piperidyl]-7-methoxy-1-methyl-benzimidazole-5-carboxamide]	0.139
COc1cc(C(=O)N2CC[C@@H](OC)[C@@H](N)C2)cc2nc(-c3cc4ccc5nc4n3CCCCCc3cc(Cl)cnc3C(=O)N[C@@H]5C)n(C)c12 [Example 783, (2~{R})-17-[5-[(3~{S},4~{R})-3-amino-4-methoxy-piperidine-1-carbonyl]-7-methoxy-1-methyl-benzimidazol-2-yl]-8-chloro-2-methyl-3,6,16,22-tetrazatetracyclo[14.5.2.0^ {5,10}.0^{19,23}] tricosa-1(21),5(10),6,8,17,19, 22-heptaen-4-one]	0.109
COc1cc(C(=O)N[C@H](C)CN)cc2nc(-c3cc4ccc5nc4n3CCCCC[C@@H]3CC3C(=O)N[C@@H]5C)n(C)c12 (stereo partly drawn) [Example 509, ~{N}-[(1~{R})-2-amino-1-methyl-ethyl]-7-methoxy-1-methyl-2-[(2~{R},7~{R})-2-methyl-4-oxo-3,13,19-triazatetracyclo[11.5.2.0^ {5,7}.0^{16,20}]icosa-1(19),14,16(20),17-tetraen-14-yl]benzimidazole-5-carboxamide]	0.146
CO[C@@H]1CCN(C(=O)c2cc(F)c3c(c2)nc(-c2cc4ccc5nc4n2CCCCCC[C@@](F)(c2cccc(Cl)n2)C(=O)N[C@@H]5C)n3C2CC2)C[C@@H]1N [Example 875, (8~{R},11~{R})-17-[5-[(3~{S), 4~{R})-3-amino-4-methoxy-piperidine-1-carbonyl]-1-cyclopropyl-7-fluoro-benzimidazol-2-yl]-8-(6-chloro-2-pyridyl)-8-fluoro-11-methyl-1,10,19-triazatricyclo[10.5.2.0^{15,18}] nonadeca-12(19), 13,15(18),16-tetraen-9-one]	0.148

The next compounds have a lower IC50 than those just listed; values first:

IC50 [µM]	SMILES
0.029	C[C@H]1NC(=O)[C@@H]2C[C@H]2CCCCCn2c(-c3nc4cc(C(=O)N[C@H]5CNCC[C@@H]5F)c(F)cc4n3CCC(N)=O)cc3ccc1nc32 [Example 428, 1-(3-amino-3-oxo-propyl)-6-fluoro-~ {N}-[(3~{S},4~{S})-4-fluoro-3-piperidyl]-2-[(2~{R},5~{R},7~{R})-2-methyl-4-oxo-3,13,19-triazatetracyclo[11.5.2.0^{5,7}.0^{16,20}]icosa-1(19),14,16(20),17-tetraen-14-yl]benzimidazole-5-carboxamide]
0.044	COC(C)Cn1c(-c2cc3ccc4nc3n2CCCCC[C@@H]2C[C@H]2C(=O)N[C@@H]4C)nc2cc(C(=O)N[C@H]3CNCC[C@@H]3F)c(F)cc21 (stereo partly drawn) [Example 430, 6-fluoro-~{N}-[(3~{S},4~{S})-4-fluoro-3-piperidyl]-1-(2-methoxypropyl)-2-[(2~{R},5~{R},7~{R})-2-methyl-4-oxo-3,13,19-triazatetracyclo[11.5.2.0^{5,7}.0^{16,20}]icosa-1(19),14,16(20),17-tetraen-14-yl]benzimidazole-5-carboxamide]
0.031	CO[C@@H]1CCN(C(=O)c2cc(F)c3c(c2)nc(-c2cc4ccc5nc4n2CCCCC[C@]2(F)C[C@H]2C(=O)N[C@@H]5C)n3C2CC2)C[C@@H]1N [Example 704, (2~{R},5~{S},7~{S})-14-[5-[(3~{S},4~{R})-3-amino-4-methoxy-piperidine-1-carbonyl]-1-cyclopropyl-7-fluoro-benzimidazol-2-yl]-7-fluoro-2-methyl-3,13,19-triazatetracyclo[11.5.2.0^ {5,7}.0^{16,20}]icosa-1(19), 14,16(20),17-tetraen-4-one]
0.057	COc1cc(C(=O)N[C@H]2CNC[C@@H](C(F)F)C2)cc2nc(-c3cc4ccc5nc4n3CC(F)(F)CCC[C@@H]3C[C@H]3C(=O)N[C@@H]5C)n(C)c12 [Example 633, 2-[(2~{R},5~{R},7~{R})-11,11-difluoro-2-methyl-4-oxo-3,13,19-triazatetracyclo[11.5.2.0^ {5,7}.0^{16,20}]icosa-1(19),14,16(20), 17-tetraen-14-yl]- ~{N}-[(3~{R},5~{S})-5-(difluoromethyl)-3-piperidyl]-7-methoxy-1-methyl-benzimidazole-5-carboxamide]
0.012	COc1cc(C(=O)N2[C@H]3CC[C@@H]2[C@H](N)C3)cc2nc(-c3cc4ccc5nc4n3C[C@H]3C[C@H]3COCCC(=O)N[C@@H]5C)c(C)n12 (single isomer, unassigned) [Example 327, (3˜{S},5˜{R},12˜{R})-18-[7-[(1˜{R},2˜{R},4˜{S})-2-amino-7-azabicyclo[2.2.1]heptane-7-carbonyl]-5-methoxy-3-methyl-imidazo[1,2-a]pyridin-2-yl]-12-methyl-7-oxa-1,11,20-triazatetracyclo[11.5.2.0^{3,5}.0^{16,19}]icosa-13(20),14,16(19),17-tetraen-10-one]
0.005	COc1cc(C(=O)N2C[C@H](N)[C@@H]3CC[C@H]2C3)cc2nc(-c3cc4ccc5nc4n3CCCCC[C@H]3[C@H](C(=O)N[C@@H]5C)C3(F)F)n(C)c12 [Example 757, (2~{R},5~{R},7~{S})-14-[5-[(1~{S},4~{R},5~{R})-4-amino-2-azabicyclo[3.2.1]octane-2-carbonyl]-7-methoxy-1-methyl-benzimidazol-2-yl]-6,6-difluoro-2-methyl-3,13,19-triazatetracyclo[11.5.2.0^ {5,7}.0^{16,20}]icosa-1(19), 14,16(20),17-tetraen-4-one]
